Earlier results as cited in PubChem BioAssay AID1259409 (Chemical Carcinogenesis Research Information System (CCRIS), 2018).

Test system: rodent chemically induced tumor inhibition, incidence and multiplicity
Experiment: CCRIS tumor inhibitor studies
Conditions: Dose [Inhibitor]: 0, Route [Inhibitor]: ORAL

COc1ccc(-c2cc(=O)c3c(O)cc(O[C@@H]4O[C@H](CO[C@@H]5O[C@@H](C)[C@H](O)[C@@H](O)[C@H]5O)[C@@H](O)[C@H](O)[C@H]4O)cc3o2)cc1O
tumour outcome (control, treated, inhibition, significance) (Carcinogen: 4-NITROQUINOLINE-1-OXIDE, 56-57-5, 1000 PPM IN DIET FOR 10 WK BEGINNING 1 WK PRIOR TO CARCINOGEN TREATMENT (STUDY DURATION: 32 WK), Species: RAT, Strain/Sex: F344/MALE, Target Tissue: Type of Lesion: TONGUE: PAPILLOMA, Dose [Carcinogen]: 20 PPM IN DRINKING WATER FOR 8 WK, Promoter: NONE USED): 8/17 (47%), 1/19 (5%), 89%, p<0.01
tumour outcome (control, treated, inhibition, significance) (Carcinogen: 4-NITROQUINOLINE-1-OXIDE, 56-57-5, 1000 PPM IN DIET FOR 10 WK BEGINNING 1 WK PRIOR TO CARCINOGEN TREATMENT (STUDY DURATION: 32 WK), Species: RAT, Strain/Sex: R344/MALE, Target Tissue: Type of Lesion: TONGUE: SQUAMOUS CELL CARCINOMA, Dose [Carcinogen]: 20 PPM IN DRINKING WATER FOR 8 WK, Promoter: NONE USED): 11/17 (65%), 4/19 (21%), 68%, p<0.01
tumour outcome (control, treated, inhibition, significance) (Carcinogen: 4-NITROQUINOLINE-1-OXIDE, 56-57-5, 1000 PPM IN DIET FOR 22 WK BEGINNING 1 WK POST CARCINOGEN TREATMENT (STUDY DURATION: 32 WK), Species: RAT, Strain/Sex: F344/MALE, Target Tissue: Type of Lesion: TONGUE: PAPILLOMA, Dose [Carcinogen]: 20 PPM IN DRINKING WATER FOR 8 WK, Promoter: NONE USED): 8/17 (47%), 2/20 (10%), 79%, p<0.05
tumour outcome (control, treated, inhibition, significance) (Carcinogen: 4-NITROQUINOLINE-1-OXIDE, 56-57-5, 1000 PPM IN DIET FOR 22 WK BEGINNING 1 WK POST CARCINOGEN TREATMENT (STUDY DURATION: 32 WK), Species: RAT, Strain/Sex: F344/MALE, Target Tissue: Type of Lesion: TONGUE: SQUAMOUS CELL CARCINOMA, Dose [Carcinogen]: 20 PPM IN DRINKING WATER FOR 8 WK, Promoter: NONE USED): 11/17 (65%), 3/20 (15%), 77%, p<0.05
tumour outcome (control, treated, inhibition, significance) (Carcinogen: AZOXYMETHANE, 25843-45-2, 0.1% IN DIET FOR 4 WK BEGINNING 1 WK PRIOR TO CARCINOGEN TREATMENT (STUDY DURATION: 32 WK), Species: RAT, Strain/Sex: F344/MALE, Target Tissue: Type of Lesion: COLON: ADENOCARCINOMA, Dose [Carcinogen]: 15 MG/KG BW 1/WK FOR 3 WK, Promoter: NONE): 70%, 22%, 69%, p<0.005
tumour outcome (control, treated, inhibition, significance) (Carcinogen: AZOXYMETHANE, 25843-45-2, 0.1% IN DIET FOR 28 WK BEGINNING 1 WK POST LAST CARCINOGEN DOSE (STUDY DURATION: 32 WK), Species: RAT, Strain/Sex: F344/MALE, Target Tissue: Type of Lesion: COLON: ADENOCARCINOMA, Dose [Carcinogen]: 15 MG/KG BW 1/WK FOR 3 WK, Promoter: NONE): 70%, 5%, 93%, p<0.001
tumour outcome (control, treated, inhibition, significance) (Carcinogen: AZOXYMETHANE, 25843-45-2, 1000 PPM IN DIET FOR 4 WK BEGINNING 1 WK PRIOR TO CARCINOGEN TREATMENT (STUDY DURATION: 32 WK), Species: RAT, Strain/Sex: F344/MALE, Target Tissue: Type of Lesion: LARGE INTESTINE: TUMOR, Dose [Carcinogen]: 15 MG/KG BW 1/WK FOR 3 WK, Promoter: NONE USED): 12/17 (71%), 5/19 (26%), 63%, p<0.01
tumour outcome (control, treated, inhibition, significance) (Carcinogen: AZOXYMETHANE, 25843-45-2, 1000 PPM IN DIET FOR 4 WK BEGINNING 1 WK PRIOR TO CARCINOGEN TREATMENT (STUDY DURATION: 32 WK), Species: RAT, Strain/Sex: F344/MALE, Target Tissue: Type of Lesion: SMALL INTESTINE: TUMOR, Dose [Carcinogen]: 15 MG/KG BW 1/WK FOR 3 WK, Promoter: NONE USED): 5/17 (29%), 0/19 (0%), 100%, p<0.05
tumour outcome (control, treated, inhibition, significance) (Carcinogen: AZOXYMETHANE, 25843-45-2, 1000 PPM IN DIET FOR 28 WK BEGINNING 1 WK POST CARCINOGEN TREATMENT (STUDY DURATION: 32 WK), Species: RAT, Strain/Sex: F344/MALE, Target Tissue: Type of Lesion: LARGE INTESTINE: TUMOR, Dose [Carcinogen]: 15 MG/KG BW 1/WK FOR 3 WK, Promoter: NONE USED): 12/17 (71%), 3/20 (15%), 79%, p<0.001
tumour outcome (control, treated, inhibition, significance) (Carcinogen: AZOXYMETHANE, 25843-45-2, 1000 PPM IN DIET FOR 28 WK BEGINNING 1 WK POST CARCINOGEN TREATMENT (STUDY DURATION: 32 WK), Species: RAT, Strain/Sex: F344/MALE, Target Tissue: Type of Lesion: SMALL INTESTINE: TUMOR, Dose [Carcinogen]: 15 MG/KG BW 1/WK FOR 3 WK, Promoter: NONE USED): 5/17 (29%), 2/20 (10%), 66%, not significant
tumour outcome (control, treated, inhibition, significance) (Carcinogen: N-BUTYL-N-(4-HYDROXYBUTYL)NITROSAMINE, 3817-11-6, 1000 PPM IN DIET FOR 8 WK BEGINNING 1 WK PRIOR TO CARCINOGEN TREATMENT (STUDY DURATION: 32 WK), Species: MOUSE, Strain/Sex: ICR/MALE, Target Tissue: Type of Lesion: URINARY BLADDER: PAPILLOMA, Dose [Carcinogen]: 500 PPM IN DRINKING WATER FOR 6 WK, Promoter: NONE USED): 5/26 (19%), 4/24 (17%), 11%, not significant
tumour outcome (control, treated, inhibition, significance) (Carcinogen: N-BUTYL-N-(4-HYDROXYBUTYL)NITROSAMINE, 3817-11-6, 1000 PPM IN DIET FOR 8 WK BEGINNING 1 WK PRIOR TO CARCINOGEN TREATMENT (STUDY DURATION: 32 WK), Species: MOUSE, Strain/Sex: ICR/MALE, Target Tissue: Type of Lesion: URINARY BLADDER: TRANSITIONAL CELL CARCINOMA, Dose [Carcinogen]: 500 PPM IN DRINKING WATER FOR 6 WK, Promoter: NONE USED): 16/26 (62%), 5/24 (21%), 66%, p<0.005
tumour outcome (control, treated, inhibition, significance) (Carcinogen: N-BUTYL-N-(4-HYDROXYBUTYL)NITROSAMINE, 3817-11-6, 1000 PPM IN DIET FOR 24 WK BEGINNING 1 WK POST CARCINOGEN TREATMENT (STUDY DURATION: 32 WK), Species: MOUSE, Strain/Sex: ICR/MALE, Target Tissue: Type of Lesion: URINARY BLADDER: PAPILLOMA, Dose [Carcinogen]: 500 PPM IN DRINKING WATER FOR 6 WK, Promoter: NONE USED): 5/26 (19%), 3/24 (13%), 32%, not significant
tumour outcome (control, treated, inhibition, significance) (Carcinogen: N-BUTYL-N-(4-HYDROXYBUTYL)NITROSAMINE, 3817-11-6, 1000 PPM IN DIET FOR 24 WK BEGINNING 1 WK POST CARCINOGEN TREATMENT (STUDY DURATION: 32 WK), Species: MOUSE, Strain/Sex: ICR/MALE, Target Tissue: Type of Lesion: URINARY BLADDER: TRANSITIONAL CELL CARCINOMA, Dose [Carcinogen]: 500 PPM IN DRINKING WATER FOR 6 WK, Promoter: NONE USED): 16/26 (62%), 2/24 (8%), 87%, p<0.0001
tumour outcome (control, treated, inhibition, significance) (Carcinogen: N-METHYL-N-AMYLNITROSAMINE, 13256-07-0, 1000 PPM IN DIET FOR 7 WK BEGINNING 1 WK POST CARCINOGEN TREATMENT (STUDY DURATION: 20 WK), Species: RAT, Strain/Sex: WISTAR/MALE, Target Tissue: Type of Lesion: ESOPHAGUS: SQUAMOUS CELL CARCINOMA, Dose [Carcinogen]: 12.5 MG/KG BW 1/WK FOR 12 WK, Promoter: NONE USED): 75%, 39%, 48%, not significant
tumour outcome (control, treated, inhibition, significance) (Carcinogen: N-METHYL-N-AMYLNITROSAMINE, 13256-07-0, 1000 PPM IN DIET FOR 7 WK BEGINNING 1 WK POST CARCINOGEN TREATMENT (STUDY DURATION: 20 WK), Species: RAT, Strain/Sex: WISTAR/MALE, Target Tissue: Type of Lesion: ESOPHAGUS: SQUAMOUS CELL PAPILLOMA, Dose [Carcinogen]: 12.5 MG/KG BW 1/WK FOR 12 WK, Promoter: NONE USED): 100%, 100%, 0%, not significant
tumour outcome (control, treated, inhibition, significance) (Carcinogen: N-METHYL-N-AMYLNITROSAMINE, 13256-07-0, 1000 PPM IN DIET FOR 7 WK BEGINNING 1 WK POST CARCINOGEN TREATMENT (STUDY DURATION: 20 WK), Species: RAT, Strain/Sex: WISTAR/MALE, Target Tissue: Type of Lesion: TONGUE: SQUAMOUS CELL CARCINOMA, Dose [Carcinogen]: 12.5 MG/KG BW 1/WK FOR 12 WK, Promoter: NONE USED): 17%, 0%, 100%, not calculated
tumour outcome (control, treated, inhibition, significance) (Carcinogen: N-METHYL-N-AMYLNITROSAMINE, 13256-07-0, 1000 PPM IN DIET FOR 7 WK BEGINNING 1 WK POST CARCINOGEN TREATMENT (STUDY DURATION: 20 WK), Species: RAT, Strain/Sex: WISTAR/MALE, Target Tissue: Type of Lesion: TONGUE: SQUAMOUS CELL PAPILLOMA, Dose [Carcinogen]: 12.5 MG/KG BW 1/WK FOR 12 WK, Promoter: NONE USED): 33%, 11%, 67%, not calculated
tumour outcome (control, treated, inhibition, significance) (Carcinogen: N-METHYL-N-AMYLNITROSAMINE, 13256-07-0, 1000 PPM IN DIET FOR 13 WK BEGINNING 1 WK PRIOR TO CARCINOGEN TREATMENT (STUDY DURATION: 20 WK), Species: RAT, Strain/Sex: WISTAR/MALE, Target Tissue: Type of Lesion: ESOPHAGUS: SQUAMOUS CELL CARCINOMA, Dose [Carcinogen]: 12.5 MG/KG BW 1/WK FOR 12 WK, Promoter: NONE USED): 75%, 29%, 61%, p<0.05
tumour outcome (control, treated, inhibition, significance) (Carcinogen: N-METHYL-N-AMYLNITROSAMINE, 13256-07-0, 1000 PPM IN DIET FOR 13 WK BEGINNING 1 WK PRIOR TO CARCINOGEN TREATMENT (STUDY DURATION: 20 WK), Species: RAT, Strain/Sex: WISTAR/MALE, Target Tissue: Type of Lesion: ESOPHAGUS: SQUAMOUS CELL PAPILLOMA, Dose [Carcinogen]: 12.5 MG/KG BW 1/WK FOR 12 WK, Promoter: NONE USED): 100%, 100%, 0%, not significant
tumour outcome (control, treated, inhibition, significance) (Carcinogen: N-METHYL-N-AMYLNITROSAMINE, 13256-07-0, 1000 PPM IN DIET FOR 13 WK BEGINNING 1 WK PRIOR TO CARCINOGEN TREATMENT (STUDY DURATION: 20 WK), Species: RAT, Strain/Sex: WISTAR/MALE, Target Tissue: Type of Lesion: TONGUE: SQUAMOUS CELL CARCINOMA, Dose [Carcinogen]: 12.5 MG/KG BW 1/WK FOR 12 WK, Promoter: NONE USED): 17%, 0%, 100%, not calculated
tumour outcome (control, treated, inhibition, significance) (Carcinogen: N-METHYL-N-AMYLNITROSAMINE, 13256-07-0, 1000 PPM IN DIET FOR 13 WK BEGINNING 1 WK PRIOR TO CARCINOGEN TREATMENT (STUDY DURATION: 20 WK), Species: RAT, Strain/Sex: WISTAR/MALE, Target Tissue: Type of Lesion: TONGUE: SQUAMOUS CELL PAPILLOMA, Dose [Carcinogen]: 12.5 MG/KG BW 1/WK FOR 12 WK, Promoter: NONE USED): 33%, 6%, 82%, not calculated
